Source: patent publication US11452775B2, “Detection of arginine methylation of EGFR for prediction of resistance to therapy” (Board of Regents, The University of Texas System, priority 2013, dated 2022)

Tests used:
[1] = test system: SKCO1 and GEO cells; assay: Cell proliferation assay with or without gefitinib; type: cell-based; conditions: PRMT1-overexpressing and vector control cells
From the text: (§1) FIGS. 1A-F. PRMT1-mediated cell proliferation and colony formation are EGFR signaling dependent. FIG. 1A. Cell proliferation assay of SKCO1 (left) and GEO (right) cells exogenously expressing PRMT1, PRMT1 shRNA, and control vector. In the top graphs, the top lines represent PRMT1 and the bottom lines represent Vector. In the bottom graphs, the top lines represent Vector and the bottom lines represent PRMT1 shRNA. P<0.05, t-test. FIG. 1B. Soft agar assay of SKCO1 cells exogenously expressing PRMT1, PRMT1 shRNA and control vector. Representative images from the anchorage-independent growth assay are shown above. *P<0.05, **P<0.005, t-test. FIG. 1C. Cell proliferation assay of SKCO1 (top) and GEO (bottom) cells expressing PRMT1 or vector control with or without gefitinib treatment. In both graphs, the top solid lines represent PRMT1 and the bottom solid lines represent Vector. In the top graph, the top dashed line represents PRMT1+gefitinib and the bottom dashed line represents Vector+gefitinib. P<0.05, t-test. FIG. 1D. Soft agar assay of SKCO1 exogenously expressing PRMT1 and control vector with or without gefitinib treatment. **P<0.005, t-test. FIG. 1E. […] All quantitative data were generated from a minimum of three replicates. Data are expressed as mean±s.d.
Cells were then trypsinized and cell numbers counted on a daily basis.

[2] = test system: SKCO1 cells; assay: Anchorage-independent growth (soft agar) assay for colony formation with or without gefitinib; type: cell-based; conditions: PRMT1-overexpressing and vector control cells
From the text: as §1, with “1D.” for “1D. Soft agar assay of SKCO1 exogenously expressing PRMT1 and control vector with or without gefitinib treatment. **P<0.005, t-test. FIG. 1E.”
The base layer of cell growth matrix containing DMEM/F12 medium, 10% FBS, and 0.5% agar was paved in 6-well plates (1.5 ml per well). […] Colonies with a diameter larger than 0.5 mm were counted.

In the case of `COc1cc2ncnc(Nc3ccc(F)c(Cl)c3)c2cc1OCCCN1CCOCC1` [gefitinib], the cell proliferation [1] is reported as “significantly inhibited” and the colony formation [2] is reported as “significantly inhibited”.
